# From article PMC11620517, “Novel hydrazone compounds with broad-spectrum antiplasmodial activity and synergistic interactions with antimalarial drugs” (Antimicrobial Agents and Chemotherapy, 2024)
# “And” between values parts separate entries of the source, which are not always exact repeats. Equal entries are not always repeated. Where two headings read alike, the source gives them in different places.
# Experiments:
# [1] = tested on: primary primate hepatocytes; assay: hepatocyte toxicity in the P. cynomolgi liver-stage assay; format: cell-based
# Method: Primary primate hepatocytes were seeded in 384-well plates and used within 2–4 days ([56]). P. cynomolgi B strain parasites were inoculated and developed into hypnozoites and schizonts. CB compounds were tested in 8-point, threefold serial dilutions (100 µM to […]) for both prophylactic (4 days starting with sporozoite addition) and radical cure (4 days starting day 4 post-inoculation) modalities ([56][–][60]). The Operetta CLS imaging system and Harmony Software 4.9 (Perkin Elmer, Waltham, MA, USA) analyzed the plates, and the percentage of inhibition (PI) was calculated in Python using equation (1), where parasitic quantities (hypnozoite and schizont counts) were normalized to the negative control ([57]). Each plate included negative (DMSO) and positive (KDU691, maduramicin, tafenoquine) controls ([58]). IC50 values were determined using an 8-point, threefold dilution format and a Python-adapted grid algorithm for fitting PI to a four-parameter logistic function ([61]).
# [2] = tested on: P. falciparum oocyst formation in Anopheles stephensi mosquitoes; assay: P. falciparum oocyst inhibition assay (SMFA); format: in vivo, Plasmodium falciparum; details: for Mean oocyst # excluding zeros (Range): P. falciparum midgut infection in An. stephensi mosquitoes; for Median (oocysts) / Median I % / Prevalence % / Prevalence I %: pooled from two representative experiments; for oocyst formation inhibition: 1 to 10 µM, midguts dissected 8 days after feeding
# Method: As previously described, P. falciparum infections were performed using SMFA with NF54 gametocyte cultures diluted to 0.3% stage V gametocytemia ([62]). Infected blood (O+ human 45% hematocrit in serum) was offered to mosquitoes for 30 minutes, and engorged mosquitoes were maintained on a 10% corn syrup solution supplemented by four concentrations of CB compounds (1, 2.5, 5, and 10 µM) at […] ([63]), with DMSO serving as a control. Eight days post-infection, mosquito midguts were dissected and stained with 0.2% mercurochrome for 30 minutes, and oocysts were quantified under a light microscope ([63]).
# [3] = tested on: P. berghei ookinete development (Ookluc parasites); assay: P. berghei ookinete luciferase inhibition assay; format: cell-based, Plasmodium berghei; details: Plasmodium berghei, 24 h, 24 hours at 19°C, luminescence; read-out: IC50 (ookinete development)
# Method: Mice were pretreated with phenylhydrazine [6 mg/mL, intraperitoneal injection (IP)] 3 days before intravenous injection (IV) infection with P. berghei Ookluc parasites ([19], [62]). Once parasitemia exceeded 15%, the mice received PYR (1 mg/mL, IP) ([19], [62]). Twenty-four hours after PYR treatment, infected mice were assessed for at least 10 exflagellations before blood was collected by heart puncture ([19], [62]). Infected blood (1:20 dilution) was incubated with 8-point serial dilutions (2.5–75 µM) of CB compounds for 24 hours at 19°C with gentle shaking ([62], [64]). Relative luminescence units (RLU) of mature ookinetes were measured using the Promega Nano-Glo Luciferase Assay System Kit and a SpectraMax M3 Microplate Reader (Molecular Devices, San Jose, CA, USA) after 3 minutes. Giemsa blood smears confirmed ookinetes.
# [4] = 1 μM compound, infection prevalence in mosquitoes
# [5] = 1 μM, single experiments, read-out: % inhibition (mean)
# [6] = 2.5 μM compound, infection prevalence in mosquitoes
# [7] = 5 μM compound, infection prevalence in mosquitoes
# [8] = 5 μM, single experiments, read-out: % inhibition (mean)
# [9] = 10 μM compound, infection prevalence in mosquitoes
# [10] = 10 μM compound, oocyst number vs DMSO control, read-out: % inhibition (mean)
# [11] = 10 μM compound, oocyst number vs DMSO control, read-out: % inhibition (median)
# [12] = 10 μM compound, vs DMSO control, read-out: % inhibition (prevalence)
smiles,measurement,setting,value
O=C(NN=Cc1ccccc1O)c1cc(-c2ccccc2)nc2ccccc12 [CB-53],Toxicity,[1],>10 µM
same,Median oocyst #,[2]; 1 μM compound,1
same,Mean oocyst # excluding zeros (Range),[2]; 1 μM compound,36 (0-125)
same,Prevalence,[2]; [4],59
same,inhibition at 1 µM,"[2]; 1 μM compound, oocyst number vs DMSO control, read-out: % inhibition (mean)",5%
same,inhibition at 1 µM,"[2]; 1 μM compound, oocyst number vs DMSO control, read-out: % inhibition (median)",83%
same,inhibition at 1 µM,"[2]; 1 μM compound, vs DMSO control, read-out: % inhibition (prevalence)",32%
same,Median (oocysts),[2]; 1 µM,1
same,Median I %,[2]; 1 µM,83%
same,Prevalence %,[2]; 1 µM,59%
same,Prevalence I %,[2]; 1 µM,32%
same,inhibition at 1 µM,[2]; [5],36%
same,Median oocyst #,[2]; 2.5 μM compound,1
same,Mean oocyst # excluding zeros (Range),[2]; 2.5 μM compound,29 (0-115)
same,Prevalence,[2]; [6],60
same,inhibition at 2.5 µM,"[2]; 2.5 μM compound, oocyst number vs DMSO control, read-out: % inhibition (mean)",22%
same,inhibition at 2.5 µM,"[2]; 2.5 μM compound, oocyst number vs DMSO control, read-out: % inhibition (median)",83%
same,inhibition at 2.5 µM,"[2]; 2.5 μM compound, vs DMSO control, read-out: % inhibition (prevalence)",31%
same,Median (oocysts),[2]; 2.5 µM,1
same,Median I %,[2]; 2.5 µM,83%
same,Prevalence %,[2]; 2.5 µM,60%
same,Prevalence I %,[2]; 2.5 µM,31%
same,Prevalence,"[2]; 2.5 μM, single experiments",67 and 91 and 47 and 70
same,inhibition at 2.5 µM,"[2]; 2.5 μM, single experiments, read-out: % inhibition (mean)",37%
same,Median oocyst #,[2]; 5 μM compound,0
same,Mean oocyst # excluding zeros (Range),[2]; 5 μM compound,26 (0-83)
same,Prevalence,[2]; [7],48
same,inhibition at 5 µM,"[2]; 5 μM compound, oocyst number vs DMSO control, read-out: % inhibition (mean)",44%
same,inhibition at 5 µM,"[2]; 5 μM compound, vs DMSO control, read-out: % inhibition (prevalence)",44%
same,Median (oocysts),[2]; 5 µM,0
same,Median I %,[2]; 5 µM,100%
same,Prevalence %,[2]; 5 µM,48%
same,Prevalence I %,[2]; 5 µM,44%
same,% inhibition (mean),"[2]; 5 μM, single experiments",23%
same,inhibition at 5 µM,[2]; [8],24%
same,Median oocyst #,[2]; 10 μM compound,1
same,Mean oocyst # excluding zeros (Range),[2]; 10 μM compound,28 (0-129)
same,Prevalence,[2]; [9],58
same,inhibition at 10 µM,[2]; [10],28%
same,inhibition at 10 µM,[2]; [11],83%
same,inhibition at 10 µM,[2]; [12],33%
same,Median (oocysts),[2]; 10 µM,1
same,Median I %,[2]; 10 µM,83%
same,Prevalence %,[2]; 10 µM,58%
same,Prevalence I %,[2]; 10 µM,33%
same,oocyst formation inhibition,[2],inhibit the development of oocysts
same,IC50,[3],14.7 µM
COc1cccc(/C=N/NC(=O)c2cc(-c3ccccc3)nc3ccccc23)c1O [CB-58],Toxicity,[1],>10 µM
same,Median oocyst #,[2]; 1 μM compound,6
same,Mean oocyst # excluding zeros (Range),[2]; 1 μM compound,19 (0-95)
same,Prevalence,[2]; [4],76
same,Median (oocysts),[2]; 1 µM,6
same,Prevalence %,[2]; 1 µM,75%
same,% inhibition (prevalence),"[2]; 1 μM, single experiments",1%
same,Prevalence,"[2]; 1 μM, single experiments",69 and 82 and 83
same,inhibition at 1 µM,[2]; [5],5%
same,inhibition at 1 µM,"[2]; 1 μM, single experiments, read-out: % inhibition (median)",23%
same,Median oocyst #,[2]; 2.5 μM compound,7
same,Mean oocyst # excluding zeros (Range),[2]; 2.5 μM compound,26 (0-103)
same,Prevalence,[2]; [6],72
same,Median (oocysts),[2]; 2.5 µM,7
same,Prevalence %,[2]; 2.5 µM,72%
same,% inhibition (prevalence),"[2]; 2.5 μM, single experiments",1%
same,Prevalence,"[2]; 2.5 μM, single experiments",66 and 79 and 87
same,Median oocyst #,[2]; 5 μM compound,6
same,Mean oocyst # excluding zeros (Range),[2]; 5 μM compound,14 (0-70)
same,Prevalence,[2]; [7],87
same,Median (oocysts),[2]; 5 µM,6
same,Prevalence %,[2]; 5 µM,87%
same,Prevalence,"[2]; 5 μM, single experiments",96 and 83 and 69
same,inhibition at 5 µM,[2]; [8],10%
same,inhibition at 5 µM,"[2]; 5 μM, single experiments, read-out: % inhibition (median)",26%
same,Median oocyst #,[2]; 10 μM compound,3
same,Mean oocyst # excluding zeros (Range),[2]; 10 μM compound,17 (0-93)
same,Prevalence,[2]; [9],57
same,inhibition at 10 µM,[2]; [10],10%
same,inhibition at 10 µM,[2]; [11],50%
same,inhibition at 10 µM,[2]; [12],19%
same,Median (oocysts),[2]; 10 µM,3
same,Median I %,[2]; 10 µM,50%
same,Prevalence %,[2]; 10 µM,57%
same,Prevalence I %,[2]; 10 µM,19%
same,% inhibition (prevalence),"[2]; 10 μM, single experiments",15%
same,inhibition at 10 µM,"[2]; 10 μM, single experiments, read-out: % inhibition (mean)",30%
same,inhibition at 10 µM,"[2]; 10 μM, single experiments, read-out: % inhibition (prevalence)",30%
same,oocyst formation inhibition,[2],did not inhibit oocyst formation
same,IC50,[3],32.5 µM
